Experimental data taken from paper PMC3653948, “PDZ Domain-Mediated Interactions of G Protein-Coupled Receptors with Postsynaptic Density Protein 95: Quantitative Characterization of Interactions” (PLoS ONE, 2013).
“Also recorded” adds a separate entry of the source. Like-named read-outs stand apart in the source and are kept apart here. Peptide text beside a SMILES is read from it.

Legend:
PSD-95 PDZ2 = molecular target: T1, PSD-95 PDZ2 (Homo sapiens, UniProt P78352); test: FP competition assay, PSD-95 PDZ2 (probe Cy5-GluN2B); format: binding; conditions: read-out: K i PDZ2
T1 construct: PDZ2 (aa 155–249); made in house; host or cells: E. coli One Shot BL21 Star (DE3)
Protocol: (§4) FP measurements were performed in black, flat bottom 384-well NBS microplates (Corning) on a Synergy H4 microplatereader (BioTek Instruments) equipped with a 620/40 nm excitation filter, a 680/30 nm emission filter, and a 660 nm dichroic mirror. Polarization values were corrected with blank samples and samples with fluorescent probe alone. At least 10 data points were measured for each curve, and each data point was measured in triplicate. […] All FP measurements were performed in a buffer containing 10 mM HEPES pH 7.4, 150 mM NaCl, and 1% BSA and incubated at least 15 min at room temperature before reading. The signal was stable for more than an hour, showing that the reaction was at equilibrium.
(§5) For the competition binding curves, probe was mixed with a constant concentration of PDZ protein corresponding to the K d and a twofold dilution series of unlabeled peptide in a total volume of 30 µl. The baseline was determined using a sample containing only probe. The IC50 was determined by fitting to a 1∶1 binding model: Y = Ymax − Ymax × X/(X+IC50). The K i was calculated from the IC50 and from the K d for the interaction between the PDZ protein and the probe as described previously [38].

PSD-95 PDZ1 = molecular target: T2, PSD-95 PDZ1 (Homo sapiens, UniProt P78352); test: FP competition assay, PSD-95 PDZ1 (probe Cy5-KIF1Bα); format: binding
T2 construct: PSD-95 PDZ1 (aa 61–151); made in house; host or cells: E. coli One Shot BL21 Star (DE3)
Protocol: as §4, §5

PSD-95 PDZ3 = molecular target: T3, PSD-95 PDZ3 (Homo sapiens, UniProt P78352); test: FP competition assay, PSD-95 PDZ3 (probe Cy5-CRIPT); format: binding
T3 construct: made in house; host or cells: E. coli One Shot BL21 Star (DE3)
Protocol: (§1) We used a competition set-up, where a constant concentration of isolated PSD-95 PDZ domain and a labeled reference ligand was titrated with unlabeled peptides from the GPCR C-tail library, typically within a 1–512 µM concentration range, and the resulting curves were fitted to obtain the IC50, which was used to calculate the K i (Figure 1). Three Cy5-labeled peptides with well-documented interactions with PSD-95 were used as reference ligands for the competition assay: Cy5-KIF1Bα was used for PDZ1 [20], Cy5-GluN2B (formerly known as NR2B) was used for PDZ2 and PDZ1-2 [21], and Cy5-CRIPT was used for PDZ3 [22] (Table S1). Competition with unlabeled versions of the reference ligands was used to validate the FP assay by comparison with the literature (Table S2).
(§2) FP measurements were performed in black, flat bottom 384-well NBS microplates (Corning) on a Synergy H4 microplatereader (BioTek Instruments) equipped with a 620/40 nm excitation filter, a 680/30 nm emission filter, and a 660 nm dichroic mirror. Polarization values were corrected with blank samples and samples with fluorescent probe alone. At least 10 data points were measured for each curve, and each data point was measured in triplicate. 25 nM Cy5-labeled probe was used for each assay: Cy5-KIF1Bα for PDZ1, Cy5-GluN2B for PDZ2 and PDZ1-2, and Cy5-CRIPT for PDZ3. All FP measurements were performed in a buffer containing 10 mM HEPES pH 7.4, 150 mM NaCl, and 1% BSA and incubated at least 15 min at room temperature before reading. The signal was stable for more than an hour, showing that the reaction was at equilibrium.
Saturation binding curves were used to determine the functionality of the PDZ domains by comparison with literature values and to calculate K i values from competition curves. Saturation binding curves were performed by mixing probe with a twofold dilution series of PDZ protein in a total volume of 30 µl. The K d was determined by fitting to a 1∶1 binding model: Y = Ymax × X/(X+K d).
(§3) For the competition binding curves, probe was mixed with a constant concentration of PDZ protein corresponding to the K d and a twofold dilution series of unlabeled peptide in a total volume of 30 µl. The baseline was determined using a sample containing only probe. The IC50 was determined by fitting to a 1∶1 binding model: Y = Ymax − Ymax × X/(X+IC50). The K i was calculated from the IC50 and from the K d for the interaction between the PDZ protein and the probe as described previously.

PSD-95 = test: FP competition assay, PSD-95 PDZ domains overall (strongest binding domain / non-binders); conditions: FP competition with the isolated PDZ domains, peptide typically 1–512 µM
Protocol: as §1, §2, §3

[1] = 25 nM Cy5-KIF1Bα, 10 mM HEPES pH 7.4, 150 mM NaCl, 1% BSA, room temperature, at least 15 min, Ki ± fitting error, read-out: K i PDZ1

| Molecule | Interaction with PSD-95 using fluorescence polarization (PSD-95) | other results |
| --- | --- | --- |
| CC(C)[C@H](NC(=O)[C@H](CS)NC(=O)[C@H](CO)NC(=O)[C@@H](NC(=O)[C@H](CCCCN)NC(=O)[C@H](CCC(=O)O)NC(=O)[C@H](CC(N)=O)NC(=O)[C@@H](NC(=O)CNC(=O)[C@H](CC(=O)O)NC(=O)[C@H](CCCNC(=N)N)NC(=O)[C@H](CC(=O)O)NC(=O)[C@H](CC(=O)O)NC(=O)[C@@H](N)Cc1ccc(O)cc1)C(C)C)C(C)C)C(=O)O [5-HTR2A] (H-YDDRDGVNEKVSCV-OH) |  | Ki (PSD-95 PDZ2): 46 ± 0.2 µM; Ki (PSD-95 PDZ1; [1]): 160 ± 4 µM; Ki (PSD-95 PDZ3; read-out: K i PDZ3): > 1000 µM |
| CC(C)C[C@H](NC(=O)[C@@H](NC(=O)[C@@H](NC(=O)[C@H](CO)NC(=O)[C@@H](NC(=O)[C@H](Cc1c[nH]cn1)NC(=O)CNC(=O)[C@H](CO)NC(=O)[C@H](CO)NC(=O)[C@H](CO)NC(=O)[C@H](CCCNC(=N)N)NC(=O)[C@H](CC(=O)O)NC(=O)[C@H](CC(=O)O)NC(=O)[C@@H](N)Cc1ccc(O)cc1)[C@@H](C)O)[C@@H](C)O)[C@@H](C)O)C(=O)O [CXCR2] (H-YDDRSSSGHTSTTL-OH) |  | Ki (PSD-95 PDZ2): 370 ± 53 µM; Ki (PSD-95 PDZ1; 25 nM Cy5-KIF1Bα, 10 mM HEPES pH 7.4, 150 mM NaCl, 1% BSA, room temperature, mean Ki ± SEM from two or more independent experiments, read-out: K i PDZ1): 280 ± 25 µM; Ki (PSD-95 PDZ3; read-out: K i PDZ3): 370 ± 39 µM |
| CC[C@H](C)[C@H](NC(=O)[C@H](CO)NC(=O)[C@H](CO)NC(=O)[C@H](CC(C)C)NC(=O)[C@H](CCCCN)NC(=O)[C@H](CCC(=O)O)NC(=O)[C@@H](N)Cc1ccc(O)cc1)C(=O)N[C@@H](CCC(=O)O)C(=O)N[C@@H](CO)C(=O)N[C@@H](CC(=O)O)C(=O)N[C@H](C(=O)O)C(C)C [GluN2B, reference compound] (H-YEKLSSIESDV-OH) |  | Ki (PSD-95 PDZ1; unlabeled reference ligand vs Cy5-KIF1Bα, mean Ki ± SEM from two or more independent experiments, read-out: Ki PDZ1 Result (Table S2)): 29 ± 2.5 µM; Ki (PSD-95 PDZ3; FP competition, unlabeled reference ligand vs Cy5-CRIPT, Ki ± fitting error, read-out: Ki PDZ3 Result (Table S2)): > 1000 µM |
| CC[C@H](C)[C@H](NC(=O)[C@H](CO)NC(=O)[C@@H](NC(=O)[C@H](CCC(N)=O)NC(=O)[C@H](CC(C)C)NC(=O)[C@H](CC(=O)O)NC(=O)CNC(=O)[C@H](CC(N)=O)NC(=O)[C@H](CC(C)C)NC(=O)[C@H](CC(C)C)NC(=O)[C@H](CCCNC(=N)N)NC(=O)[C@H](CC(=O)O)NC(=O)[C@H](CC(=O)O)NC(=O)[C@@H](N)Cc1ccc(O)cc1)[C@@H](C)O)C(=O)O [SSTR2A] (H-YDDRLLNGDLQTSI-OH) |  | Ki (PSD-95 PDZ2): 230 ± 2 µM; Ki (PSD-95 PDZ1; [1]): 620 ± 106 µM; Ki (PSD-95 PDZ3; read-out: K i PDZ3): > 1000 µM |
| CC[C@H](C)[C@H](NC(=O)[C@H](CCCNC(=N)N)NC(=O)[C@H](CCSC)NC(=O)[C@@H](NC(=O)[C@H](CO)NC(=O)[C@H](CO)NC(=O)[C@H](CCCCN)NC(=O)[C@H](CCCNC(=N)N)NC(=O)[C@H](CC(=O)O)NC(=O)[C@@H](N)CC(=O)O)[C@@H](C)O)C(=O)N[C@@H](CO)C(=O)N[C@@H](Cc1ccc(O)cc1)C(=O)N[C@@H](CC(C)C)C(=O)O [SSTR3] (H-DDRKSSTMRISYL-OH) |  | Ki (PSD-95 PDZ2): > 1000 µM; Ki (PSD-95 PDZ1; [1]): 610 ± 125 µM; Ki (PSD-95 PDZ1; receptors binding to PDZ1 but not to PDZ2, read-out: K i PDZ1): > 600 µM; Ki (PSD-95 PDZ3; read-out: K i PDZ3): 280 ± 5 µM |
| CC(C)C[C@H](NC(=O)[C@H](CC(C)C)NC(=O)[C@H](CO)NC(=O)[C@H](CC(=O)O)NC(=O)[C@H](CC(N)=O)NC(=O)[C@@H](NC(=O)[C@H](CO)NC(=O)[C@H](CS)NC(=O)[C@H](CC(N)=O)NC(=O)[C@H](CCCNC(=N)N)NC(=O)[C@H](CCCNC(=N)N)NC(=O)[C@H](CC(=O)O)NC(=O)[C@H](CC(=O)O)NC(=O)[C@@H](N)Cc1ccc(O)cc1)[C@@H](C)O)C(=O)O [β2AR] (H-YDDRRNCSTNDSLL-OH) |  | Ki (PSD-95 PDZ1; [1]): > 1000 µM; Ki (PSD-95 PDZ3; read-out: K i PDZ3): > 1000 µM |
| ANGLMQTSKL [SSTR5, synthetic peptide, C-terminal 10 aa of human SSTR5 with N-terminal YDDR/DDR linker] | not to interact |  |
| DRTNHQVRSL [μOR-1A, synthetic peptide, C-terminal 10 aa of human µOR-1A with N-terminal YDDR/DDR linker] | not to interact |  |
| EFKQNGDTSL [P2Y1, synthetic peptide, C-terminal 10 aa of human P2Y1 with N-terminal YDDR/DDR linker] | not to interact |  |
| ESESSSFHSS [CXCR4, synthetic peptide, C-terminal 10 aa of human CXCR4 with N-terminal YDDR/DDR linker] | not to interact |  |
| ETSEASYSGL [CXCR3, synthetic peptide, C-terminal 10 aa of human CXCR3 with N-terminal YDDR/DDR linker] | not to interact |  |
| EVVDSTTSSL [mGlu2, synthetic peptide, C-terminal 10 aa of human mGlu2 with N-terminal YDDR/DDR linker] | not to interact |  |
| GHPLMDSTL [LPA2, synthetic C-tail peptide of human LPA2 with N-terminal YDDR/DDR linker] | not to interact |  |
| GVQPALGVGL [A2B, synthetic peptide, C-terminal 10 aa of human adenosine A2B receptor with N-terminal YDDR/DDR linker] | not to interact |  |
| NDPESLESCF [5-HTR4(a), synthetic peptide, C-terminal 10 aa of human 5-HTR4(a) with N-terminal YDDR/DDR linker] | not to interact |  |
| QRERRQKSDW [μOR-1B2, synthetic peptide, C-terminal 10 aa of human µOR-1B2 with N-terminal YDDR/DDR linker] | not to interact |  |
| QSPFPFPGRV [μOR-1B5, synthetic peptide, C-terminal 10 aa of human µOR-1B5 with N-terminal YDDR/DDR linker] | not to interact |  |
| RDIDGMNKPV [κOR, synthetic peptide, C-terminal 10 aa of human κ opioid receptor (no PDZ motif) with N-terminal YDDR/DDR linker] | not to interact; also recorded: no interaction |  |
| RDYTQSSSSL [mGlu5(b), synthetic peptide, C-terminal 10 aa of human mGlu5(b) with N-terminal YDDR/DDR linker] | not to interact |  |
| SDGPGGGAAA [δOR, synthetic peptide, C-terminal 10 aa of human δ opioid receptor with N-terminal YDDR/DDR linker] | not to interact |  |
| SENATSLTTF [CXCR5, synthetic peptide, C-terminal 10 aa of human CXCR5 with N-terminal YDDR/DDR linker] | not to interact |  |
| SSSVNVSSNL [CXCR1, synthetic peptide, C-terminal 10 aa of human CXCR1 with N-terminal YDDR/DDR linker] | not to interact |  |
| TGEHEVSTGL [CCR5 Mouse, synthetic peptide, C-terminal 10 aa of mouse CCR5 with N-terminal YDDR/DDR linker] | not to interact |  |
| TGEQEISVGL [CCR5 Human, synthetic peptide, C-terminal 10 aa of human CCR5 with N-terminal YDDR/DDR linker] | not to interact |  |
